Laboratory results from US20210106703A1, “RADIOIMMUNOCONJUGATES IN COMBINATION WITH OTHER DRUGS AS TREATMENT AGAINST NHL” (Nordic Nanovector ASA, priority 2017, published 2021).
“Also recorded” adds a separate entry of the source.

What was measured:
DOHH2 cells [1] = test: Cell cycle analysis (PI, Muse flow cytometer); type: cell-based, human; settings: DOHH2, 1 μM inhibitor + ^177Lu-lilotomab, versus ^177Lu-lilotomab alone or untreated
Procedure: (§1) Cells were harvested at day 0, 2 h, 18 h, 1 d, 2 d, 3 d, of RIT then fixed in 70% ethanol at −20° C. for 3 hours and stained with Cell Cycle kit (with PI) reagent from Merck Millipore in the dark for 30 min at room temperature before analysis using a Muse® flow cytometer. The percentage of cells in G0/G1, S and G2/M phases was then calculated (mean of three experiments in triplicate).
(§2) At different times after start of incubation, proteins were extracted to measure the CDK1 phosphorylation levels, in parallel, proliferation was determined and at 18 h and 24 h after start of incubation, the percentage of cells in G2/M was assessed (experiments were performed three time except the cell cycle analysis).
(§3) Cells were harvested at 0 h, 2 h, 18 h, 1 d, 2 d, 3 d, and fixed in 70% ethanol at −20° C. for at least 3 h. After staining with the Muse® Cell Cycle Assay Kit (Merck Millipore, Molsheim, France) using propidium iodide in the dark at room temperature for 30 min, cell cycle distribution was analyzed using a Muse® flow cytometer. The percentage of cells in the G0/G1, S and G2/M was calculated (mean of three experiments in triplicate) and the effect of WEE-1 and MYT-1 kinase inhibitors on the cell cycle was assessed.

Ramos cells [2] = test: Cell cycle analysis (PI, Muse flow cytometer); type: cell-based, human; settings: 1 μM inhibitor + ^177Lu-lilotomab, versus ^177Lu-lilotomab alone or untreated
Procedure: as §1, §2, §3

Rec-1 cells [3] = test: Cell cycle analysis (PI, Muse flow cytometer); type: cell-based, human; settings: Rec-1, 1 μM inhibitor + ^177Lu-lilotomab, versus ^177Lu-lilotomab alone or untreated
Procedure: as §1, §2, §3

OCI-Ly8 cells = test: Cell cycle analysis (PI, Muse flow cytometer); type: cell-based, human; settings: OCI-Ly8, 1 μM inhibitor + ^177Lu-lilotomab, versus ^177Lu-lilotomab alone
Procedure: as §3, with “[…],” for “h, 2 h, 18 h, 1 d, 2 d, 3 d,”, “-20°” for “−20°”

DOHH2 cells [4] = test: Proliferation study with Wee-1/Myt-1 inhibitors and ^177Lu-lilotomab; type: cell-based, human; settings: DOHH2, inhibitor alone 1 μM for 18 h, 6 days after start
Procedure: (§4) Cells were treated for 18 h with 1 μM of the selective Wee-1 kinase inhibitor MK-1775 (Selleckchem, Houston, USA) or of the dual Wee-1/Myt-1 inhibitor PD-166285 (EMD Merck Millipore/Calbiochem, Molsheim, France) alone or in combination with 6 MBq/mL, 2 MBq/mL and 0.5 MB/mL of ^177Lu-lilotomab for Ramos, Rec-1 and DOHH2 cells respectively. At different times after start of incubation, proteins were extracted to measure the CDK1 phosphorylation levels, in parallel, proliferation was determined and at 18 h and 24 h after start of incubation, the percentage of cells in G2/M was assessed (experiments were performed three time except the cell cycle analysis).
(§5) The activity used for the treatment with ^177Lu-lilotomab was chosen to decrease the proliferation to about 50% for the three cell lines compared with non-treated cells.
(§6) Inhibition of G2/M cell cycle arrest radiosensitises radioresistant Ramos model. The Bliss independence mathematical model was next used to investigate the role of MK-1775 or PD-166285 on the response to ^177Lu-lilotomab. A theoretical therapeutic efficacy was calculated for the two combinations (MK-1775 or PD-166285) in the three cell lines. And the comparison between the experimental and the theoretical curves was done.
(§7) Theoretical efficacyRIT+inhib=EfficacyRIT+Efficacyinhib−(EfficacyRIT×Efficacyinhib)

Ramos cells [5] = test: as above; type: cell-based, human; settings: inhibitor 1 μM + ^177Lu-lilotomab 6 MBq/mL (RIT) for 18 h, 6 days after start
Procedure: as §4, §5, §6, §7

DOHH2 cells [6] = test: Apoptosis induction (Annexin V/7-AAD, Muse flow cytometer); type: cell-based, human; settings: DOHH2, 18 h exposure to unlabelled mAb, plateau at 18 h
Procedure: (§8) Cells were harvested at 0, 2 h, 18 h, 1 d, 2 d, 3 d of RIT. At each time point, apoptosis was detected with […] from Merck Millipore (Annexin V Kit with 7-AAD) in the dark for 30 min at room temperature before analysis using Muse® flow cytometer

Ramos cells [7] = test: as above; type: cell-based, human; settings: 18 h exposure to unlabelled mAb, at peak time
Procedure: as §8

Rec-1 cells [8] = test: as above; type: cell-based, human; settings: Rec-1, 18 h exposure to unlabelled mAb, at peak time
Procedure: as §8

CD37 receptor = biological target: T1, CD37 receptor (Homo sapiens, UniProt P11049); settings: cited from earlier work
T1 sequence (P11049 1-281): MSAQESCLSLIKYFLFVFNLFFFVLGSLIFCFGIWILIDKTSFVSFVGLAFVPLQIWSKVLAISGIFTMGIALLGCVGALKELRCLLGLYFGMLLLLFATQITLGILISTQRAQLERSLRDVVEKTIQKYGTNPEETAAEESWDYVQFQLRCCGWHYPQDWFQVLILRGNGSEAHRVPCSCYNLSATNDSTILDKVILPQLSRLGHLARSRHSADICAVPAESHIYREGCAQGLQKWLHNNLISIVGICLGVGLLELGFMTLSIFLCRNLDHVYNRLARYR

OCI-Ly8 tumor xenografts = test: Treatment of mice with tumor xenografts; settings: single agent

## CCN(CC)CCOc1ccc(Nc2ncc3cc(-c4c(Cl)cccc4Cl)c(=O)n(C)c3n2)cc1 [PD-166285]
DOHH2 cells [1]
  Proportion of cells in G2/M, inhibitor combined with ^177Lu-lilotomab: higher than that induced by the combination with the MK-1775; also recorded: reduction of the fraction of G2/M cells
Ramos cells [2]
  Proportion of cells in G2/M, inhibitor combined with ^177Lu-lilotomab: reduction of the fraction of G2/M cells
Rec-1 cells [3]
  Proportion of cells in G2/M, inhibitor combined with ^177Lu-lilotomab: reduction of the fraction of G2/M cells
OCI-Ly8 cells
  Proportion of cells in G2/M, inhibitor combined with ^177Lu-lilotomab: reduction of the fraction of G2/M cells
DOHH2 cells [4]
  Proliferation (treated/untreated cells): 18%
Ramos cells [5]
  Proliferation (treated/untreated cells): ~10%

B1: lilotomab: murine anti-CD37 IgG1 mAb (antibody, chains of the INN, looked up, V domains shown)
VH: EIQLQQSGPELVKPGASVKVSCKASGYSFTDYNMYWVKQSHGKSLEWIGYIDPYNGDTTYNQKFKGKATLTVDKSSSTAFIHLNSLTSEDSAVYYCARSPYGHYAMDYWGQGTSVTVSS
VL: DIVMTQSHKLLSTSVGDRVSITCKASQDVSTAVDWYQQKPGQSPKLLINWASTRHTGVPDRFTGSGSGTDYTLTISSMQAEDLALYYCRQHYSTPFTFGSGTKLEIK
DOHH2 cells [6]
  Apoptosis level: No apoptosis was induced
Ramos cells [7]
  Apoptosis level: No apoptosis was induced
Rec-1 cells [8]
  Apoptosis level: No apoptosis was induced
CD37 receptor
  Equilibrium dissociation constant: nanomolar
OCI-Ly8 tumor xenografts
  Therapeutic efficacy compared with control: no therapeutic efficacy
